In assay [1] the test system is MDA‐MB‐468. Description: MTT cytotoxicity assay in MDA-MB-468. In kind it is cell-based, human. The note with it: for IC50: 48 h, read-out: IC50 (μM) in MDA‐MB‐468 (mean ± SD); for decrease in the IC50 of Doxorubicin in the presence of the compound: MDA-MB-468, versus Doxorubicin alone. The procedure:
(§1) TNBC cell lines (ER^−, PR^−, HER2^−)—MDA‐MB‐231 (ATCC HTB‐26) and MDA‐MB‐468 (ATCC HTB‐132) were procured from ATCC and cultured in Roswell Park Memorial Institute Media (RPMI‐1640) and Dulbecco's Modified Eagle's Medium (DMEM), respectively, supplemented with 10% FBS and 1% Penicillin–Streptomycin solution. Cells were maintained at 5% CO2 at 37°C in a humid atmosphere.[6], [26] The control cell line, Human Embryonic Kidney—HEK‐293 (ATCC CRL‐3216) was also obtained from ATCC and cultured in DMEM.[5], [25]
(§2) To evaluate the cytotoxicity profile of the potential EGFR inhibitors (compounds) against TNBC cell lines—MDA‐MB‐231, MDA‐MB‐468, and control cell line HEK293, cells were seeded at a cell density of 5 × 10^3 cells/well in complete medium onto 96‐well plates. Here, the non‐tumoral human embryonic kidney (HEK293) epithelial cells have been utilized as a control cell line to compare the IC50 values of the compounds between cancerous and non‐cancerous cell lines with a big therapeutic window. The use of HEK293 cells as compared to other non‐cancerous cell lines are easy to maintain in culture and the results obtained from HEK293 are highly reproducible and consistent.[27] Briefly, the cells were incubated at 37°C for 12 h to attain morphology. After 12 h, cells were serum starved by replacing the complete media with media containing 2% FBS to synchronize the cells. Post‐12 h of synchronization, cells were treated with an increasing concentration (0.1, 1, 10, 100 μM) of all the compounds (1a, 1b, 1c, 1d, 1e, 1f, 1g, 1h, 1i, 1j, 1k). Separately, TNBC cells were treated with increasing concentration (0.01, 0.1, 1 μM) of Doxorubicin (Sigma‐Aldrich, St Louis, MO, USA) in presence of the selected compounds (1c, 1e, 1g, 1h, 1j, and 1k) at 5 μM concentration or combination of selected compounds (1c, 1e, 1g, 1h, 1j, and 1k) at increasing concentration (1, 2.5, 5, 10 μM) in presence of Doxorubicin (0.01 μM) for 48 h. In addition, the CD24^+‐breast cancer cells and CD24^−/CD44^+‐breast CSC populations, being sorted by Magnetic Activated Cell Sorting (MACS) from MDA‐MB‐231 cells as described previously,[6] were also treated with increasing concentrations of Doxorubicin (0.01–1 μM), in the presence or absence of 1e (10–30 μM), or PD153035 (10 μM) (Sigma‐Aldrich, St Louis, MO, USA). MTT assay was performed to evaluate the cytotoxicity of these compounds against the TNBC cell lines, and the sorted populations as described previously.[6] All the experiments were performed thrice and the IC50 values of the compounds and Doxorubicin were calculated using GraphPad Prism software version 9 (San Diego, CA, USA). Similarly, the percent inhibition of the sorted cell populations by chemotherapeutic drug, doxorubicin in the absence/presence of potent compound 1e or standard EGFR inhibitor, PD153035 was evaluated utilizing GraphPad Prism Version 9 (San Diego, CA, USA).
A general note: Formazan colour is commonly taken as a measure of viable cells.

The test system of assay [2] is MDA‐MB‐231. Description: MTT cytotoxicity assay in MDA-MB-231. In kind it is cell-based, human. The note with it: for IC50: 48 h, read-out: IC50 (μM) in MDA‐MB‐231 (mean ± SD). As to the method:
as §1, §2

For another assay, the system named is HEK‐293. The assay is described as follows: MTT cytotoxicity assay in control cell line HEK-293. In kind it is cell-based, human. The conditions noted are these: non-tumoral control cell line, read-out: IC50 (μM) in HEK‐293 (mean ± SD). The procedure:
as §1, §2

Assay [3] relates to Bax and Cytochrome‐C in MDA‐MB‐231 cells. The assay is described as follows: Gene expression of apoptotic genes, semi-quantitative RT-PCR. In kind it is cell-based, human. The conditions noted are these: MDA-MB-231, doxorubicin + compound 5 μM, 24 h. The procedure: Briefly, the cells were incubated at 37°C with serum starvation followed by culturing as described above. […] Briefly, the template RNA (1 μg) was utilized for cDNA synthesis using a First‐strand cDNA synthesis kit (Thermo Scientific, USA) according to the manufacturer's protocol. Thermal cycler (Mastercycler® nexus, Eppendorf) was used for the amplification of the expression of apoptotic genes—Bax, Bcl2, Cytochrome‐C, and target gene EGFR with the help of Dream Taq DNA Polymerase PCR Master Mix (Thermo Scientific, USA) along with human gene‐specific forward and reverse primer sequences of the apoptotic genes and EGFR (Table ST1). The expression of the target genes was normalized to the Eukaryotic 18S rRNA.

The subject of assay [4] is MDA‐MB‐468. The assay is described as follows: Cell migration (chemotaxis), Boyden-Chamber assay. The conditions noted are these: Doxorubicin 0.01 μM + compound 5 μM (PD153035 10 μM) vs 10% FBS and Doxorubicin alone. In kind it is cell-based, human. As to the method:
(§3) TNBC cell lines—MDA‐MB‐231, MDA‐MB‐468, and the sorted CD24^+‐breast cancer cells, and CD24^−/CD44^+‐breast CSC populations from MDA‐MB‐231 [6] were seeded at a density of 1 × 10^6 cells/well to evaluate their migratory potential by Boyden‐Chamber assay. […] At the end of the treatment period, the cells were plated at a density of 5 × 10^3 cells/well in the upper chamber of the Boyden chamber assembly and 10% FBS in the lower chamber was used as a chemoattractant. Separately, the cells in the upper chamber were treated with Doxorubicin (0.01–0.1 μM) alone or with the potential EGFR inhibitors (compounds—1c, 1e, 1g, 1h, 1j, and 1k (5 μM) based on their low IC50 values) or a commercial EGFR inhibitor, PD153035 (10 μM) and incubated for 4 h followed by fixation and staining as described previously.[28], [29]

Assay [5] concerns MDA‐MB‐231. Description: Cell migration (chemotaxis), Boyden-Chamber assay. In kind it is cell-based, human. The note with it: Doxorubicin 0.01 μM + compound 5 μM (PD153035 10 μM) vs 10% FBS and Doxorubicin alone. The procedure:
as §3

The subject of assay [6] is CD24^−/CD44^+‐breast CSCs xenotransplanted tumors. Description: Preclinical orthotopic xenograft murine tumor model (tumor size, weight, H&E histology). In kind it is in vivo, C57BL/6 mice. The note with it: doxorubicin high dose 10 mg/kg intratumoral vs untreated breast CSCs transplanted group. As to the method:
Animal studies have been carried out with the prior approval of the Institutional Animal Ethics Committee (IICT/IAEC/025/2023). C57BL/6 female mice of age 6–8 weeks (N = 35) were initially immunosuppressed with cyclophosphamide (50 mg/kg of body weight, i.p) on alternate days for 2 weeks. For generating a preclinical orthotopic xenograft tumor model, 2 × 10^6 GFP expressing sorted stable CD24^+‐breast cancer cells and CD24^−/CD44^+‐breast CSCs were orthotopically xeno‐transplanted subcutaneously at the fourth mammary fat pad of immune‐suppressed mice (n = 5/group). Subsequently, intratumoral administration of Doxorubicin at a low dose (2.5 mg/kg of body weight), high dose (10 mg/kg of body weight), and/or combinatorial treatment of the potent EGFR inhibitor, compound 1e (50 mg/kg of body weight) or the commercial EGFR inhibitor, PD153035 (50 mg/kg of body weight) with a low dose of doxorubicin was performed to the palpable tumors of breast CSCs at day‐3 post‐transplantation.
Euthanization of mice was performed on day 14 post‐transplantation and tumor tissues were collected for histological and immunohistochemical analysis. Histological differences in tumor tissues were evaluated using hematoxylin and eosin staining (H&E).[28], [30]

Where two headings read alike, the source gives them in different places.

Turning to `c1ccc2c(C(c3c[nH]c4ccccc34)c3c[nH]c4ccccc34)c[nH]c2c1` [1b], the IC50 (commonly the point on the concentration scale where inhibition reaches its midpoint) with MDA‐MB‐468 [1] (compound alone, MTT) came out at 90.8 ± 7.87 µM; in the assay on MDA‐MB‐231 [2] (compound alone, MTT) it was 22.1 ± 1.96 µM; with HEK‐293 (compound alone), 231 ± 15.9 µM.
With `Oc1ccc(C(c2c[nH]c3ccccc23)c2c[nH]c3ccccc23)cc1` [1c], the “expression of pro‐apoptotic genes Bax and Cytochrome‐C” value (“expression” for short) in assay [3] is listed as “marked increase”. Moreover, the “decrease in the IC50 of Doxorubicin in the presence of the compound” value (from here on “decrease in the IC50 of Doxorubicin”) with MDA‐MB‐468 [1] amounted to 10 fold. Further, the half-maximal inhibitory concentration (IC50) in the assay on MDA‐MB‐468 [1] (compound alone, MTT) was determined as 25 ± 2.41 µM; in the assay on MDA‐MB‐231 [2] (compound alone, MTT), 30.5 ± 2.93 µM; in the assay with HEK‐293 (compound alone), 127 ± 16.8 µM. The migratory potential result with MDA‐MB‐468 [4] and with MDA‐MB‐231 [5] was “significant decrease” in each case.
`c1ccc(C(c2c[nH]c3ccccc23)c2c[nH]c3ccccc23)nc1` [1d]: the IC50 in the assay with MDA‐MB‐468 [1] (compound alone, MTT) came to 47.6 ± 5.99 µM; in the assay with MDA‐MB‐231 [2] (compound alone, MTT) it was 44.4 ± 2.11 µM; in the assay with HEK‐293 (compound alone), 219 ± 11.6 µM.
In the case of `CN(C)c1ccc(C(c2c[nH]c3ccccc23)c2c[nH]c3ccccc23)cc1` [1f], the IC50 is 130 ± 7.76 µM in the assay with MDA‐MB‐468 [1] (compound alone, MTT); 73 ± 1.13 µM in the assay with MDA‐MB‐231 [2] (compound alone, MTT); at least 1000 µM in the assay with HEK‐293 (compound alone).
With `c1ccc2c(C(c3c[nH]c4ccccc34)C(c3c[nH]c4ccccc34)c3c[nH]c4ccccc34)c[nH]c2c1` [1g], the “expression” value in assay [3] was “marked increase”. The “decrease in the IC50 of Doxorubicin” value with MDA‐MB‐468 [1] is listed as 10 fold. The IC50 is 29.6 ± 6.04 µM in the assay with MDA‐MB‐468 [1] (compound alone, MTT); at least 1000 µM in the assay with MDA‐MB‐231 [2] (compound alone, MTT); at least 1000 µM in the assay with HEK‐293 (compound alone). The migratory potential result in the assay with MDA‐MB‐468 [4] and in the assay on MDA‐MB‐231 [5] was “significant decrease” throughout.
For `COc1cc(C(c2c[nH]c3ccccc23)c2c[nH]c3ccccc23)ccc1O` [1j], the “expression” value in assay [3] is reported as “marked increase”. Also, the “decrease in the IC50 of Doxorubicin” value in the assay on MDA‐MB‐468 [1] amounted to 10 fold. Moreover, the IC50 was 68.4 ± 5.51 µM with MDA‐MB‐468 [1] (compound alone, MTT); 114 ± 1.25 µM with MDA‐MB‐231 [2] (compound alone, MTT); 327 ± 20.7 µM in the assay on HEK‐293 (compound alone).
With `c1ccc2c(C(c3ccc(C(c4c[nH]c5ccccc45)c4c[nH]c5ccccc45)cc3)c3c[nH]c4ccccc34)c[nH]c2c1` [1k, 1,4‐bis(di(1H‐indol‐3‐yl)methyl)benzene], the “expression” value in assay [3] was “marked increase”. Moreover, the IC50 turned out to be 20.4 ± 2.41 µM in the assay with MDA‐MB‐468 [1] (Homo sapiens, MDA-MB-468, compound alone, MTT); 14.7 ± 1.36 µM in the assay with MDA‐MB‐231 [2] (Homo sapiens, MDA-MB-231, 48 h, compound alone, MTT); 235 ± 12.5 µM with HEK‐293 (Homo sapiens, HEK293, compound alone). Further, the “decrease in the IC50 of Doxorubicin” value with MDA‐MB‐468 [1] is 10 fold.
Turning to `COc1cccc2c1C(=O)c1c(O)c3c(c(O)c1C2=O)C[C@@](O)(C(=O)CO)C[C@@H]3O[C@H]1C[C@H](N)[C@H](O)[C@H](C)O1` [Doxorubicin, reference compound], the inhibition (as a rule, the drop in the measured response relative to a control, in per cent) at 0.01 µM in the assay with MDA‐MB‐468 [1] (Homo sapiens, MDA-MB-468, Doxorubicin 0.01 µM alone, read-out: Percent inhibition (%) in MDA-MB-468 (Mean ± SEM)) worked out at 19.1 ± 1.08%; in the assay on MDA‐MB‐231 [2] (Homo sapiens, MDA-MB-231, Doxorubicin 0.01 µM alone, read-out: Percent inhibition (%) in MDA-MB-231 (Mean ± SEM)) it was 21.1 ± 0.701%. Besides, the concentration for half-maximal inhibition (IC50) was found to be 0.4 ± 0.008 µM in the assay on MDA‐MB‐468 [1] (Homo sapiens, MDA-MB-468, IC50 of doxorubicin alone or in presence of compound at 5 μM); 0.1 µM in the assay on MDA‐MB‐231 [2] (Homo sapiens, MDA-MB-231, 48 h, IC50 of doxorubicin alone or in presence of compound at 5 μM); 0.11 ± 0.01 µM in the assay with MDA‐MB‐231 [2] (IC50 of doxorubicin alone or in presence of compound at 5 μM). Also, in assay [6], the “tumor size and weight” value is given as “significantly lower”.

The record behind these values is article PMC10961089, “Epidermal growth factor receptor inhibition potentiates chemotherapeutics‐mediated sensitization of metastatic breast cancer stem cells” (Cancer Reports, 2024).
